Values after ≈ are worked out from the molar mass of the structure shown.
Columns and labels:
Experiment in all cases: in vitro antibacterial activity (MIC), agar dilution
Type in all cases: cell-based
[1] = tested on: Haemophilis Influenzae DILL AMP R; conditions: organism code WW; BHI agar, 35-37° C., 20 to 24 hours; unit assumed
Procedure: (§1) Representative compounds of the present invention were assayed in vitro for antibacterial activity as follows: Twelve petri dishes containing successive aqueous dilutions of the test compound mixed with 10 mL of sterilized Brain Heart Infusion (BHI) agar (Difco 0418-01-5) were prepared. Each plate was inoculated with 1:100 (or 1:10 for slow-growing strains, such as Micrococcus and Streptococcus) dilutions of up to 32 different microorganisms, using a Steers replicator block. […] In addition, a control plate, using BHI agar containing no test compound, was prepared and incubated at the beginning and end of each test.
(§2) An additional plate containing a compound having known susceptibility patterns for the organisms being tested and belonging to the same antibiotic class as the test compound was also prepared and incubated as a further control, as well as to provide test-to-test comparability.
(§3) After incubation, each plate was visually inspected. The minimum inhibitory concentration (MIC) was defined as the lowest concentration of drug yielding no growth, a slight haze, or sparsely isolated colonies on the inoculum spot as compared to the growth control.

[2] = tested on: Micrococcus luteus ATCC 4698; conditions: organism code PP; BHI agar, 35-37° C., 20 to 24 hours; unit assumed
Procedure: as §1, §2, §3

[3] = tested on: Staphylococcus aureus CMX 553; conditions: organism code FF; BHI agar, 35-37° C., 20 to 24 hours; unit assumed
Procedure: as §1, §2, §3

[4] = tested on: Staphylococcus aureus A5177; conditions: organism code BB; BHI agar, 35-37° C., 20 to 24 hours; unit assumed
Procedure: as §1, §2, §3

[5] = tested on: Streptococcus bovis A-5169; conditions: organism code JJ; BHI agar, 35-37° C., 20 to 24 hours; unit assumed
Procedure: as §1, §2, §3

[6] = tested on: Staphylococcus aureus A-5278; conditions: organism code CC; BHI agar, 35-37° C., 20 to 24 hours; unit assumed
Procedure: as §1, §2, §3

[7] = tested on: Streptococcus pyogenes PIU 2548; conditions: organism code NN; BHI agar, 35-37° C., 20 to 24 hours; unit assumed
Procedure: as §1, §2, §3

[8] = tested on: Streptococcus agalactiae CMX 508; conditions: organism code KK; BHI agar, 35-37° C., 20 to 24 hours; unit assumed
Procedure: as §1, §2, §3

[9] = tested on: Staphylococcus aureus NCTC10649M; conditions: organism code EE; BHI agar, 35-37° C., 20 to 24 hours; unit assumed
Procedure: as §1, §2, §3

[10] = tested on: Staphylococcus epidermidis 3519; conditions: organism code HH; BHI agar, 35-37° C., 20 to 24 hours; unit assumed
Procedure: as §1, §2, §3

[11] = tested on: Candida albicans CCH 442; conditions: organism code TT; BHI agar, 35-37° C., 20 to 24 hours; unit assumed
Procedure: as §1, §2, §3

[12] = tested on: Streptococcus pyogenes 930; conditions: organism code MM; BHI agar, 35-37° C., 20 to 24 hours; unit assumed
Procedure: as §1, §2, §3

[13] = tested on: Micrococcus luteus ATCC 9341; conditions: organism code OO; BHI agar, 35-37° C., 20 to 24 hours; unit assumed
Procedure: as §1, §2, §3

[14] = tested on: Escherichia coli JUHL; conditions: organism code QQ; BHI agar, 35-37° C., 20 to 24 hours; unit assumed
Procedure: as §1, §2, §3

[15] = tested on: Staphylococcus aureus ATCC 6538P; conditions: organism code AA; BHI agar, 35-37° C., 20 to 24 hours; unit assumed
Procedure: as §1, §2, §3

[16] = tested on: Streptococcus Pneumonia 5979; conditions: organism code ZZ; BHI agar, 35-37° C., 20 to 24 hours; unit assumed
Procedure: as §1, §2, §3

[17] = tested on: Streptococcus Pneumonia ATCC6303; conditions: organism code XX; BHI agar, 35-37° C., 20 to 24 hours; unit assumed
Procedure: as §1, §2, §3

[18] = tested on: Nocardia Asteroides ATCC9970; conditions: organism code VV; BHI agar, 35-37° C., 20 to 24 hours; unit assumed
Procedure: as §1, §2, §3

[19] = tested on: Streptococcus pyogenes EES61; conditions: organism code LL; BHI agar, 35-37° C., 20 to 24 hours; unit assumed
Procedure: as §1, §2, §3

[20] = tested on: Mycobacterium smegmatis ATCC 114; conditions: organism code UU; BHI agar, 35-37° C., 20 to 24 hours; unit assumed
Procedure: as §1, §2, §3

[21] = tested on: Streptococcus Pneumonia GYR 1171; conditions: organism code YY; BHI agar, 35-37° C., 20 to 24 hours; unit assumed
Procedure: as §1, §2, §3

[22] = tested on: Escherichia coli SS; conditions: organism code RR; BHI agar, 35-37° C., 20 to 24 hours; unit assumed
Procedure: as §1, §2, §3

[23] = tested on: Staphylococcus aureus CMX 642A; conditions: organism code DD; BHI agar, 35-37° C., 20 to 24 hours; unit assumed
Procedure: as §1, §2, §3

[24] = tested on: Enterococcus faecium ATCC 8043; conditions: organism code II; BHI agar, 35-37° C., 20 to 24 hours; unit assumed
Procedure: as §1, §2, §3

[25] = tested on: Escherichia coli DC-2; conditions: organism code SS; BHI agar, 35-37° C., 20 to 24 hours; unit assumed
Procedure: as §1, §2, §3

[26] = tested on: Staphylococcus aureus 1775; conditions: organism code GG; BHI agar, 35-37° C., 20 to 24 hours; unit assumed
Procedure: as §1, §2, §3

[27] = tested on: Streptococcus Pneumonia 5649; conditions: organism code ZZA; BHI agar, 35-37° C., 20 to 24 hours; unit assumed
Procedure: as §1, §2, §3

Structure (SMILES)	MIC [2] [µg/mL]	MIC [3] [µg/mL]	MIC [4] [µg/mL]	MIC [5] [µg/mL]	MIC [6] [µg/mL]	MIC [7] [µg/mL]	MIC [8] [µg/mL]	MIC [9] [µg/mL]	MIC [10] [µg/mL]	MIC [11] [µg/mL]	MIC [12] [µg/mL]	MIC [13] [µg/mL]	MIC [14] [µg/mL]	MIC [15] [µg/mL]	MIC [16] [µg/mL]	MIC [17] [µg/mL]	MIC [18] [µg/mL]	MIC [19] [µg/mL]	MIC [20] [µg/mL]	MIC [21] [µg/mL]	also measured
CC[C@H]1OC(=O)[C@H](C)C(=O)[C@H](C)[C@@H](O[C@@H]2O[C@H](C)C[C@H](N(C)C)[C@H]2O)[C@](C)(OC/C=C/c2cncc(-c3cncnc3)c2)C[C@@H](C)C(=O)[C@H](C)[C@H]2NC(=O)O[C@@]21C [Example 45]	0.1 (≈ 0.126 µM)	0.05 (≈ 0.063 µM)	0.05 (≈ 0.063 µM)	≤ 0.005	> 100	0.39 (≈ 0.491 µM)	≤ 0.005	0.2 (≈ 0.252 µM)	0.1 (≈ 0.126 µM)	> 100	25 (≈ 31.5 µM)	0.01 (≈ 0.0126 µM)	50 (≈ 63 µM)	0.05 (≈ 0.063 µM)	> 128	0.008 (≈ 0.0101 µM)	0.05 (≈ 0.063 µM)	≤ 0.005	1.56 (≈ 1.96 µM)	≤ 0.004	MIC [1]: 2 µg/mL (≈ 2.52 µM); MIC [22]: 0.39 µg/mL (≈ 0.491 µM); MIC [23]: 0.1 µg/mL (≈ 0.126 µM); MIC [24]: 0.05 µg/mL (≈ 0.063 µM); MIC [25]: 25 µg/mL (≈ 31.5 µM); MIC [26]: > 100 µg/mL
CC[C@H]1OC(=O)[C@H](C)C(=O)[C@H](C)[C@@H](O[C@@H]2O[C@H](C)C[C@H](N(C)C)[C@H]2O)[C@](C)(OC/C=C/c2cncc(-c3cccnc3)c2)C[C@@H](C)C(=O)[C@H](C)[C@H]2NC(=O)O[C@@]21C [Example 47]	0.2 (≈ 0.252 µM)	0.05 (≈ 0.0631 µM)	0.05 (≈ 0.0631 µM)	0.01 (≈ 0.0126 µM)	> 100	0.2 (≈ 0.252 µM)	0.01 (≈ 0.0126 µM)	0.1 (≈ 0.126 µM)	0.1 (≈ 0.126 µM)	> 100	50 (≈ 63.1 µM)	0.01 (≈ 0.0126 µM)	50 (≈ 63.1 µM)	0.05 (≈ 0.0631 µM)	> 128	0.008 (≈ 0.0101 µM)	0.05 (≈ 0.0631 µM)	0.02 (≈ 0.0252 µM)	0.78 (≈ 0.984 µM)	0.008 (≈ 0.0101 µM)	MIC [27]: 0.5 µg/mL (≈ 0.631 µM); MIC [22]: 0.39 µg/mL (≈ 0.492 µM); MIC [23]: 0.05 µg/mL (≈ 0.0631 µM); MIC [24]: 0.05 µg/mL (≈ 0.0631 µM); MIC [25]: 25 µg/mL (≈ 31.5 µM); MIC [26]: > 100 µg/mL
CC[C@H]1OC(=O)[C@H](C)C(=O)[C@H](C)[C@@H](O[C@@H]2O[C@H](C)C[C@H](N(C)C)[C@H]2O)[C@](C)(OC/C=C/c2cncc(-c3cncc4ccccc34)c2)C[C@@H](C)C(=O)[C@H](C)[C@H]2NC(=O)O[C@@]21C [Example 48]	0.1 (≈ 0.119 µM)	0.2 (≈ 0.237 µM)	0.2 (≈ 0.237 µM)	0.02 (≈ 0.0237 µM)	> 100	0.2 (≈ 0.237 µM)	0.02 (≈ 0.0237 µM)	0.2 (≈ 0.237 µM)	0.2 (≈ 0.237 µM)	> 100	100 (≈ 119 µM)	0.05 (≈ 0.0593 µM)	> 100	0.2 (≈ 0.237 µM)	16 (≈ 19 µM)	≤ 0.004	0.05 (≈ 0.0593 µM)	0.05 (≈ 0.0593 µM)	0.78 (≈ 0.925 µM)	≤ 0.004	MIC [27]: 0.25 µg/mL (≈ 0.297 µM); MIC [22]: 0.78 µg/mL (≈ 0.925 µM); MIC [23]: 0.2 µg/mL (≈ 0.237 µM); MIC [24]: 0.05 µg/mL (≈ 0.0593 µM); MIC [25]: > 100 µg/mL; MIC [26]: > 100 µg/mL

— patent US6054435A, “6-O-substituted macrolides having antibacterial activity” (priority 1999, dated 2000)
